Measurements reported in PubChem BioAssay AID1996.
≈ marks a conversion by molar mass, not a printed value.

settings: buffer; pH 7.4; 200.0 µM

First: O=C(Nc1ccc(Cl)c(Cl)c1)c1ccco1
Second: O=C(NC(=S)Nc1ccccc1Cl)c1ccco1
The solubility kinetic of the first is 3.4-fold higher: 8.5 µg/mL (≈ 33.2 µM) for the first, 2.5 µg/mL (≈ 8.91 µM) for the second.

First: COc1cccc(-c2nc(N3CCCC3)c3ccccc3n2)c1O
Second: COc1ccc(C(=O)Nc2cc3c4c(c2)CC(=O)N4CCC3)cc1
The solubility kinetic of the first is lower: < 0.2 µg/mL for the first, > 48.4 µg/mL for the second.

Compared with `COc1ccc(C(=O)Nc2ccc(CN3CCCCC3)cc2)cc1`, `CC(=O)Nc1ccc(N2CCN(Cc3ccccc3)CC2)cc1` is lower in solubility kinetic: > 48.7 µg/mL for the first, 43.5 µg/mL (≈ 141 µM) for the second.

Compared with `CCOc1ccccc1NC(=O)c1ccc2ccccc2c1`, `CC(=O)c1ccc(NC(=S)Nc2cccc3ccccc23)cc1` is higher in solubility kinetic: < 0.6 µg/mL for the first, 10.6 µg/mL (≈ 33.1 µM) for the second.

`CC(C)Cc1ccc(S(=O)(=O)Nc2cccnc2)cc1` and `Cc1ccc(S(=O)(=O)Nc2ccc(O)c3cccnc23)cc1` are within 1.5-fold of each other in solubility kinetic: 14.3 µg/mL (≈ 49.2 µM) for the first, 19 µg/mL (≈ 60.4 µM) for the second.

`CC1CCCCC1NC(=O)C1CC(=O)N(Cc2ccccc2)C1` (centres undefined) and `O=C(NCc1ccccc1)N1CCCC1` cannot be ordered by solubility kinetic: > 47.2 µg/mL for the first, > 30.6 µg/mL for the second.

First: CN(C)[C@@H]1C(=O)C(C(N)=O)=C(O)[C@@]2(O)C(=O)C3=C(O)c4c(O)cccc4[C@@](C)(O)[C@H]3[C@H](O)[C@@H]12
Second: CC1=CC(C)(C)N(C(=O)CN2C(=O)CCC2=O)c2ccc(C)cc21
The solubility kinetic of the first is lower: 47 µg/mL (≈ 102 µM) for the first, > 49 µg/mL for the second.

Compared with `COc1ccc(-c2ccccc2)cc1NC(=O)c1cccs1`, `COc1ccccc1C(=O)NCC(=O)Nc1ccc2c(c1)OCO2` is 8.8-fold higher in solubility kinetic: 1.2 µg/mL (≈ 3.88 µM) for the first, 10.5 µg/mL (≈ 32 µM) for the second.

Going from `CC1CCN(C(=O)COc2cccc3c2CCN(C)C3=O)CC1` to `Cc1cccc(OCCN2CCOCC2)c1C`, the solubility kinetic falls from > 47.5 µg/mL to 24.4 µg/mL (≈ 104 µM).

Compared with `Cc1cc2nc(-c3ccc[nH]c3=O)n(Cc3ccccc3F)c2cc1C`, `Cc1[nH]c2ccccc2c1-c1nc2ccccc2[nH]c1=O` is 3.2-fold higher in solubility kinetic: 0.4 µg/mL (≈ 1.15 µM) for the first, 1.3 µg/mL (≈ 4.72 µM) for the second.

`CC(C)(C)NC(=O)NC(=O)COC(=O)c1cc[n+]([O-])cc1` and `O=C(COC(=O)c1ccc(Cl)nc1)NC1CCCCCC1` cannot be ordered by solubility kinetic: > 44.3 µg/mL for the first, > 46.6 µg/mL for the second.

`O=C(OCC(=O)N1CCc2ccccc2C1)c1cccs1` and `O=C(NCC(=O)N1CCN(c2ncccn2)CC1)c1ccccc1OC(F)F` are within 1.5-fold of each other in solubility kinetic: 36.8 µg/mL (≈ 122 µM) for the first, 52.2 µg/mL (≈ 133 µM) for the second.

Going from `CC1(C)CC(=O)c2ccc(OCc3ccc([N+](=O)[O-])cc3)cc2O1` to `C[N+](C)(C)CCOc1ccc([N+](=O)[O-])cc1.[Br-]`, the solubility kinetic rises from < 0.7 µg/mL to > 45.8 µg/mL.

Compared with `COc1ccccc1NC(=O)NCC1(N(C)C)CCCCC1`, `CCOC(=O)C1=C(C)NC(=O)NC1/C=C/c1ccccc1OC` (centres undefined) is lower in solubility kinetic: > 45.8 µg/mL for the first, 2.6 µg/mL (≈ 8.22 µM) for the second.

Compared with `CCC(=O)Nc1ccc2c(c1)nc(CCNC(=O)c1ccco1)n2C`, `CC(=O)c1cn(CC(=O)NCCc2c[nH]c3ccccc23)c2ccccc12` is lower in solubility kinetic: > 51.1 µg/mL for the first, 2.6 µg/mL (≈ 7.23 µM) for the second.

Compared with `CN(c1ccccc1)S(=O)(=O)c1ccc2[nH]c(=O)oc2c1`, `CCOc1ccccc1NC(=O)Cn1c(=O)oc2cc(Cl)ccc21` is lower in solubility kinetic: > 45.6 µg/mL for the first, 10.5 µg/mL (≈ 30.3 µM) for the second.

Compared with `CN1C2CCC1CC(OC(c1ccccc1)c1ccccc1N)C2` (centres undefined), `CCC(C)NC(=O)C1c2ccccc2C(=O)N1Cc1ccccc1` (centres undefined) is lower in solubility kinetic: > 48.4 µg/mL for the first, 38.4 µg/mL (≈ 119 µM) for the second.

Going from `S=C(NCC1CCCO1)NC1CCCCC1` (centres undefined) to `Cc1cc(=O)oc(C)c1C(=O)NC1CCCCCCC1`, the solubility kinetic falls from > 36.4 µg/mL to 11.8 µg/mL (≈ 42.5 µM).

`O=C(NC(=S)N1CCCCCC1)c1ccccc1Cl` and `CCN1C(=O)CC(N2CCC(C(=O)N3CCCCCC3)CC2)C1=O` (centres undefined) cannot be ordered by solubility kinetic: > 44.5 µg/mL for the first, > 50.3 µg/mL for the second.

Going from `CN1C(=O)N(C)C(=O)C2(Cc3ccccc3N3CCCC32)C1=O` (centres undefined) to `Cc1c(N2C(=O)CSC2c2ccco2)c(=O)n(-c2ccccc2)n1C` (centres undefined), the solubility kinetic rises from 46 µg/mL (≈ 147 µM) to > 53.3 µg/mL.

`CNc1nnc(-c2ccc(OC)cc2)s1` and `COc1cccc2cc(C(N)=O)oc12` cannot be ordered by solubility kinetic: > 33.2 µg/mL for the first, > 28.7 µg/mL for the second.

`CC1(c2ccccc2)NC(=O)N(CC(=O)Nc2ccccc2C(=O)NC2CC2)C1=O` (centres undefined) and `O=C(NCc1ccco1)c1cc(S(=O)(=O)NC2CC2)ccc1Br` cannot be ordered by solubility kinetic: > 61 µg/mL for the first, > 59.9 µg/mL for the second.

First: CSc1ncc(C(=O)Nc2cc(C)ccc2C)c(C)n1
Second: Cc1ccc(C)c(NC(=O)c2ccc3nccnc3c2)c1
The solubility kinetic of the first is higher: > 43.1 µg/mL for the first, 6.4 µg/mL (≈ 23.1 µM) for the second.

First: Cc1c(/C=N/NC(=O)c2ccc(Br)o2)cnn1C
Second: CCN(CC)C(=O)c1cccc(C)c1
The solubility kinetic of the first is higher: > 46.7 µg/mL for the first, 19.6 µg/mL (≈ 102 µM) for the second.

`C=CCN(Cc1ccc(Cl)s1)C(=O)c1ccc(F)c(S(=O)(=O)N2CCOCC2)c1` and `Nc1nc2ccccc2n1CCOc1ccc(Cl)cc1` are within 1.5-fold of each other in solubility kinetic: 23.8 µg/mL (≈ 51.9 µM) for the first, 25.8 µg/mL (≈ 89.7 µM) for the second.

Compared with `N#Cc1ccc(OC(=O)Cc2ccsc2)cc1`, `COC(=O)/C(C#N)=C/c1c[nH]c2ccccc12` is 5-fold lower in solubility kinetic: 35.5 µg/mL (≈ 146 µM) for the first, 7.1 µg/mL (≈ 31.4 µM) for the second.

`Cc1nc(SCC(=O)N2CCN(c3ccccn3)CC2)c(C#N)c(C)c1C` and `CCn1ccnc1CN1CCCC(C(=O)c2ccc(OC)cc2OC)C1` (centres undefined) are within 1.5-fold of each other in solubility kinetic: 41.8 µg/mL (≈ 110 µM) for the first, 48.7 µg/mL (≈ 136 µM) for the second.

Going from `CCOC(=O)c1oc2nc3c(cc2c1N)CCCC3` to `C/C(N)=C(/C#N)C(=O)COC(=O)c1cc2c(s1)CCCC2`, the solubility kinetic falls from 10.4 µg/mL (≈ 40 µM) to 2.2 µg/mL (≈ 7.23 µM) (4.7-fold).

`CCCc1cc(C(=O)NC(C)C2CCCO2)cs1` (centres undefined) and `O=C(CCN1C(=O)C2CC=CCC2C1=O)NC1CCCCC1` (centres undefined) cannot be ordered by solubility kinetic: > 40.1 µg/mL for the first, > 45.7 µg/mL for the second.

`COc1cccc(NC(=O)C2C3C=CC(C3)C2C(=O)O)c1` (centres undefined) gave a solubility kinetic of 27.1 µg/mL (≈ 94.3 µM).
